Laboratory results: article PMC4129416, “YLT192, a Novel, Orally Active Bioavailable Inhibitor of VEGFR2 Signaling with Potent Antiangiogenic Activity and Antitumor Efficacy in Preclinical Models” (Scientific Reports, 2014)

Assays:
HCT116 cells = assay: Western blot of apoptosis-related proteins caspase 3 and Bax; format: cell-based, human; conditions: 48 hours
Description: Figure 4 Inhibitory effects of YLT192 on tumor cells. (A) YLT192 inhibited U251 and HCT116 cells proliferation. The EdU incorporation assay was conducted on U251 and HCT116 cells after treated with YLT192 for 24 hours. The EdU-positive (red fluorescent staining) cells and Hoechst staining (blue fluorescent staining) cells represented proliferating and total cells in the fluorescent images, respectively (100×). Quantification was shown on the right panels. (B) YLT192 induced apoptosis of HCT116 cells. HCT116 cells were treated with YLT192 or vehicle for 48 hours followed by flow cytometric analysis of annexin V-FITC and PI staining. The proportion of early apoptotic cells (annexin V positive) and late apoptotic cells (annexin V and PI positive cells) were shown. Typical apoptosis-related proteins caspase 3 and Bax were detected by western blot. Each has the expression of β-actin as internal control. The full size blots were shown in the Supplemental Figure S6 online. […] U251 and HCT116 cells were treated with YLT192 or vehicle for 48 hours and the expression of protein in different signaling pathways were detected by western blot with specific antibodies. […]
Supplementary Figure S7. […] HCT116 cells were treated with YLT192 or vehicle for 48 hours and then typical apoptosis-related proteins caspase 3 and Bax were detected by western blot. […]

Aurora-A = target: T1, Aurora-A (Homo sapiens, UniProt O14965); assay: Radiometric kinase assay (Millipore Kinase Profile Service); format: biochemical; conditions: means ± SD, two independent experiments, read-out: inhibition rate at 1 μM (%)
T1 construct: purchased Millipore (Kinase Profile Service, UK)
Description: (§1) YLT192 was designed and synthesized in the State Key Laboratory of Biotherapy, Sichuan University (Sichuan, China). Its structural formula and synthesis route was shown in Fig. 1A and Supplementary Figure S1, respectively. The kinase inhibitory activity of YLT192 was measured by the use of radiometric assays provided by Kinase Profile Service (Millipore, UK). The effects of YLT192 on kinase activity were detected using the scintillation proximity assay method at an enzymatic level. […] In addition, the inhibitory activity of YLT192 was examined against platelet-derived growth factor receptor (PDGFR)-related kinases because of their structural similarity to the VEGFR2. […] Moreover, excellent selectivity for VEGFR2 was evident compared with a range of unrelated tyrosine and serine/threonine kinases, including fibroblast growth factor receptor 3, polo-like kinase 1, aurora-A, Axl, MET, protein kinase A, c-RAF etc.

Aurora-B = target: T2, Aurora-B (Homo sapiens, UniProt Q96GD4); assay: as above; format: biochemical; conditions: means ± SD, two independent experiments, read-out: inhibition rate at 1 μM (%)
T2 construct: purchased Millipore (Kinase Profile Service, UK)
Description: as §1

IKKβ = target: T3, IKKβ (Homo sapiens, UniProt O14920); assay: as above; format: biochemical; conditions: means ± SD, two independent experiments, read-out: inhibition rate at 1 μM (%)
T3 construct: purchased Millipore (Kinase Profile Service, UK)
Description: as §1

FGFR1 = target: T4, FGFR1 (Homo sapiens, UniProt P11362); assay: as above; format: biochemical; conditions: means ± SD, two independent experiments, read-out: inhibition rate at 1 μM (%)
T4 construct: purchased Millipore (Kinase Profile Service, UK)
Description: as §1

Met = target: T5, Met (Homo sapiens, UniProt P08581); assay: as above; format: biochemical; conditions: means ± SD, two independent experiments, read-out: inhibition rate at 1 μM (%)
T5 construct: purchased Millipore (Kinase Profile Service, UK)
Description: as §1

CDK6/cyclinD3 = target: T6, CDK6/cyclinD3 (Homo sapiens, UniProt Q00534); assay: as above; format: biochemical; conditions: means ± SD, two independent experiments, read-out: inhibition rate at 1 μM (%)
T6 construct: purchased Millipore (Kinase Profile Service, UK)
Description: as §1

ALK = target: T7, ALK (Homo sapiens, UniProt Q9UM73); assay: as above; format: biochemical; conditions: means ± SD, two independent experiments, read-out: inhibition rate at 1 μM (%)
T7 construct: purchased Millipore (Kinase Profile Service, UK)
Description: as §1

cKit = target: T8, cKit (Homo sapiens, UniProt P10721); assay: as above; format: biochemical; conditions: means ± SD, two independent experiments, read-out: inhibition rate at 1 μM (%)
T8 construct: purchased Millipore (Kinase Profile Service, UK)
Description: as §1

EGFR = target: T9, EGFR (Homo sapiens, UniProt P00533); assay: as above; format: biochemical; conditions: means ± SD, two independent experiments, read-out: inhibition rate at 1 μM (%)
T9 construct: purchased Millipore (Kinase Profile Service, UK)
Description: as §1

Acute toxicity test = format: in vivo; conditions: rats
Description: All the HCT116 model mice were sacrificed after 24 days of treatment.
Acute toxicity test was done to investigate the safety profiles of YLT192 on rats. Briefly, 7–8 week old female and male rats (n = 10, respectively) were orally administrated with YLT192 at 3000 mg/kg. Then clinical symptoms of the rats including mortality, body weight and gross findings were observed once daily for 14 days. On day 14, the rats were sacrificed and examined by necropsy.

VEGFR2 = VEGFR2 (Homo sapiens, UniProt P35968); assay: Radiometric kinase assay (Millipore Kinase Profile Service); format: biochemical; design: purchased Millipore (Kinase Profile Service, UK); conditions: means ± SD, two independent experiments, read-out: inhibition rate at 1 μM (%)
Description: as §1

HUVEC = assay: Capillary-like tube formation assay; format: cell-based, human; conditions: designed concentrations; 6 hours; Matrigel
Description: To elucidate the possible mechanisms of angiogenesis inhibition, tube formation ability of ECs, which is a critical step in the process of angiogenesis, was assessed in HUVEC in vitro.
The anti-angiogenesis ability of YLT192 in vitro was evaluated using capillary tube formation assay as described previously. Briefly, 96-well plate was pre-incubated with Matrigel at 37°C for 45 minutes. Then HUVECs (2 × 10^4 cells) suspended in EGM2 medium were seeded onto the Matrigel. They were treated with various concentrations of YLT192. After 6 hours incubation at 37°C, tube formation was assessed with an OLYMPUS inverted digital camera in low power fields (50×). Vandetanib served as positive control. The assay was replicated 3 times.

T9 sequence (P00533 25-1210): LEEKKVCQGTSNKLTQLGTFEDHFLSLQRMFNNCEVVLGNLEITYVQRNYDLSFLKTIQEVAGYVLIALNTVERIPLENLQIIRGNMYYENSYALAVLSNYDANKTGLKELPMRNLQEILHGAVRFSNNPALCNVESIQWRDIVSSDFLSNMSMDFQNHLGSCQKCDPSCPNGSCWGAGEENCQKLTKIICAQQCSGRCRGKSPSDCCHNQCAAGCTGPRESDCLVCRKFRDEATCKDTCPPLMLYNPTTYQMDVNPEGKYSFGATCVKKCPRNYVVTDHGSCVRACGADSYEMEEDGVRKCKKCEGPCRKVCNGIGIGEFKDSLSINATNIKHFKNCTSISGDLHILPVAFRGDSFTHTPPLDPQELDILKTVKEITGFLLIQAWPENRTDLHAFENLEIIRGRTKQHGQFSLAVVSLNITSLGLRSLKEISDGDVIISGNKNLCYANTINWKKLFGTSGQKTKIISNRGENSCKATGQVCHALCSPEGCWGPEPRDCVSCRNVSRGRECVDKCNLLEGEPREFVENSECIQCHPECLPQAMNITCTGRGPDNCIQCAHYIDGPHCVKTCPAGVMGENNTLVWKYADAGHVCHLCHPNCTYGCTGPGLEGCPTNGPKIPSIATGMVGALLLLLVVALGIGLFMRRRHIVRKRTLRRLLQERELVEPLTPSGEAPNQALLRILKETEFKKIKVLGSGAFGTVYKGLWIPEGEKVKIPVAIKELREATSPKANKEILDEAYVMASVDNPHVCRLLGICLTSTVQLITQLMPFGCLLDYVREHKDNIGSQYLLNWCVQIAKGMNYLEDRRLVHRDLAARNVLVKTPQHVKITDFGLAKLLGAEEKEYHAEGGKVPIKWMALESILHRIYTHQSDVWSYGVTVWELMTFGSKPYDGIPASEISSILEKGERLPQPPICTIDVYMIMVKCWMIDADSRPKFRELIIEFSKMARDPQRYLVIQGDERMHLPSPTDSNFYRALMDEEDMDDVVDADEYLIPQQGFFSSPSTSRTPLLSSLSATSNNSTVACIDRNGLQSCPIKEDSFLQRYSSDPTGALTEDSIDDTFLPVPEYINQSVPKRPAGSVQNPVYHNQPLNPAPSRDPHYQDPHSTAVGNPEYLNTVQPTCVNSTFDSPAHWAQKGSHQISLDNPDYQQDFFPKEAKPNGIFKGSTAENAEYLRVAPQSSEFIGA
T2 sequence (Q96GD4 whole entry): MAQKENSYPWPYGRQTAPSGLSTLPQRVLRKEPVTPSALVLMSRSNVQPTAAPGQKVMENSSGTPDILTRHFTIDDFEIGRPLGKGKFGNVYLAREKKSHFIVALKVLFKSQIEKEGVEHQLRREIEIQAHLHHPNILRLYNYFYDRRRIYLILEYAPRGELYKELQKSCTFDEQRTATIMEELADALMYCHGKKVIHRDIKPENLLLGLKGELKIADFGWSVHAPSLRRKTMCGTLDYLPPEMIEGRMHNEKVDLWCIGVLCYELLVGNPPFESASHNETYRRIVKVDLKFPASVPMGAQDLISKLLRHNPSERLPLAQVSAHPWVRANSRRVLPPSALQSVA
T8 sequence (P10721 26-976): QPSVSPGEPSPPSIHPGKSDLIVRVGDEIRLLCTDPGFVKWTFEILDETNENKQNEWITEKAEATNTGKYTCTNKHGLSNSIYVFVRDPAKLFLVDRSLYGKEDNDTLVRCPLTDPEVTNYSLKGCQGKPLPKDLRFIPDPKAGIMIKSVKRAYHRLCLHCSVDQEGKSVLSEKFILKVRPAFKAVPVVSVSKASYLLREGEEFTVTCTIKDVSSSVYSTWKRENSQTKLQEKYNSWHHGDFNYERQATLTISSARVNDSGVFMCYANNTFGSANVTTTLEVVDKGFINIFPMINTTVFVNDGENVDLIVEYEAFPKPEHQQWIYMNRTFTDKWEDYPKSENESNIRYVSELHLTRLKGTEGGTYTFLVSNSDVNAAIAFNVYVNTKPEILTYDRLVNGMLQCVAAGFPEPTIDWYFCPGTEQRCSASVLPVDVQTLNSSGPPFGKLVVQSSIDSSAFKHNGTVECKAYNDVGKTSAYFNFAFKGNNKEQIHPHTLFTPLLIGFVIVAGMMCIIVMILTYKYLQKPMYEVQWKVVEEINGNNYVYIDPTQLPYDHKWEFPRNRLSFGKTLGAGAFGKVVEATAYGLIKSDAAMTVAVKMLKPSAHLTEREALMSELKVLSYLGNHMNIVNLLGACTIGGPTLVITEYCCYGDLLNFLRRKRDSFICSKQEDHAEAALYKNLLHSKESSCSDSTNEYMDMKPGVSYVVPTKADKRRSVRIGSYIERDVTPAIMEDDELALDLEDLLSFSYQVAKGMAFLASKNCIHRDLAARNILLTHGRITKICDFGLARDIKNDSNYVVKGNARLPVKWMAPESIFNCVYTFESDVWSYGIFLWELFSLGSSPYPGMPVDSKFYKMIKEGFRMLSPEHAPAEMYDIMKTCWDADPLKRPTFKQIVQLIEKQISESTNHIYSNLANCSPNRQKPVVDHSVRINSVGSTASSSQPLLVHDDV
T7 sequence (Q9UM73 19-1620): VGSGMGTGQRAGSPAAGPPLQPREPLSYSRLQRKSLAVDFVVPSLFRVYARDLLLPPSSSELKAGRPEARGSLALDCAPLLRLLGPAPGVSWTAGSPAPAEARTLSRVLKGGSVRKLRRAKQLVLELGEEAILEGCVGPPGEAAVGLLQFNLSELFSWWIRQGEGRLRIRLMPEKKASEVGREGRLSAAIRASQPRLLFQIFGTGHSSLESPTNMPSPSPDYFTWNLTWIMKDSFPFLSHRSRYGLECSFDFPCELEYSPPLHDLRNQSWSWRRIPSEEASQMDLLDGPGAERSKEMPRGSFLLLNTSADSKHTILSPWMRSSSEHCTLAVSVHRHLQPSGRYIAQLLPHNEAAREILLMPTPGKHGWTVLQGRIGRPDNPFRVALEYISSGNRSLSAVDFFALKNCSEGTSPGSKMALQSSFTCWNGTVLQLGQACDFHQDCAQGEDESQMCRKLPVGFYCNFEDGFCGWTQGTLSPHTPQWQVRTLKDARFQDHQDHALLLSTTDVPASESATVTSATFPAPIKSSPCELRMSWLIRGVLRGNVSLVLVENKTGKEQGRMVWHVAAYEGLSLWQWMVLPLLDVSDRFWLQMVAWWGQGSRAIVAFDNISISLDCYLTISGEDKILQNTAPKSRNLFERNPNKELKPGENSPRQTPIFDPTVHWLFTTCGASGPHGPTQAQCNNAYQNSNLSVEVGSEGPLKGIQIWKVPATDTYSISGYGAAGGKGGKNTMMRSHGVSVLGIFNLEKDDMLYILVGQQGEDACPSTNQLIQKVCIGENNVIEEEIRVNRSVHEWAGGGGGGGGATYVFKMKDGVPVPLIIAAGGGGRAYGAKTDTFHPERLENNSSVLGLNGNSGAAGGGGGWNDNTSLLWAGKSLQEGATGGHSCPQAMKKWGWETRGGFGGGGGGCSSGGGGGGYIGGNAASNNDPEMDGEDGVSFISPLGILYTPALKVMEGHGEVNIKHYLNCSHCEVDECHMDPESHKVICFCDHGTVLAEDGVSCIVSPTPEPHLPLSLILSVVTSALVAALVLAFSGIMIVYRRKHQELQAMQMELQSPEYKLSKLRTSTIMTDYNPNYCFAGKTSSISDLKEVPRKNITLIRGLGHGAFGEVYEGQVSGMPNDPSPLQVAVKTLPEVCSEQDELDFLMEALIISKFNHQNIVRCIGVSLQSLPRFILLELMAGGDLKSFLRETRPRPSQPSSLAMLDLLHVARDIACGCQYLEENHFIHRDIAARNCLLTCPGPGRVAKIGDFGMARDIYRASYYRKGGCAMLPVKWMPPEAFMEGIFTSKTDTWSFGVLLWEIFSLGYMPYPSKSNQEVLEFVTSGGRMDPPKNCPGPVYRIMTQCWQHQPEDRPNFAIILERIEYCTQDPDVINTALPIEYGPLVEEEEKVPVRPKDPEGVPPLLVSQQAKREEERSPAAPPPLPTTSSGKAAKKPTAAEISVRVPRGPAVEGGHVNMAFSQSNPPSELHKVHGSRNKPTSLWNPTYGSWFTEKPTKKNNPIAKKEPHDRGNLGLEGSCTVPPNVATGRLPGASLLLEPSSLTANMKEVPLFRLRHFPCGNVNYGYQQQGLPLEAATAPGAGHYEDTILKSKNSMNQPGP
T3 sequence (O14920 whole entry): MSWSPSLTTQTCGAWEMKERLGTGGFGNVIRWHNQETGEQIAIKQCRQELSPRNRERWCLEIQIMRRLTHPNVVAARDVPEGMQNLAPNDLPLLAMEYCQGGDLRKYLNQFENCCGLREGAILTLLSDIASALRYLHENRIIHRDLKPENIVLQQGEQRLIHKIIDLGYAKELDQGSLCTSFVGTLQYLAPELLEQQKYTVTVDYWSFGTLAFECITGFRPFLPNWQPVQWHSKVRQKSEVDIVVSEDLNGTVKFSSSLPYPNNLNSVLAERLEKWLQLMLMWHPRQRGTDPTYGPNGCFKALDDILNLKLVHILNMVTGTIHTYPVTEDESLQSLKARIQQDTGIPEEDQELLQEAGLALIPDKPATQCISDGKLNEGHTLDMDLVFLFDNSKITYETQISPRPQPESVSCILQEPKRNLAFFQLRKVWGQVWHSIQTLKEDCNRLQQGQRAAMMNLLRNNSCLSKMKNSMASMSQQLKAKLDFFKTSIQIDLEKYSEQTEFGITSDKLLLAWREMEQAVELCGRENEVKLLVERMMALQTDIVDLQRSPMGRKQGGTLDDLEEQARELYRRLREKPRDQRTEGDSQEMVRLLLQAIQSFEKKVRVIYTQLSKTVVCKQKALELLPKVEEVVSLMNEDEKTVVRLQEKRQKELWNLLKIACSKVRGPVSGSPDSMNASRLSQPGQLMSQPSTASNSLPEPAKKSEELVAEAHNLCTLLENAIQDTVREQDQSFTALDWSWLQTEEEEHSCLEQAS

Structure (SMILES): CNC(=O)c1cc(Oc2ccc(NC(=O)c3cccc(OC)c3)cc2)ccn1 [YLT192]
- expression of pro-apoptotic Bax (HCT116 cells): increased
- pro-caspase-3 and its pro-apoptotic cleaved forms (HCT116 cells): a reduction of pro-caspase-3 and an increase in levels of its pro-apoptotic cleaved forms
- inhibition at 1 µM (Aurora-A): -1 ± 4%
- inhibition at 1 µM (Aurora-B): 23 ± 5%
- inhibition at 1 µM (IKKβ): 2 ± 6%
- inhibition at 1 µM (FGFR1): 21 ± 3%
- inhibition at 1 µM (Met): -2 ± 6%
- inhibition at 1 µM (CDK6/cyclinD3): 0%
- inhibition at 1 µM (ALK): -4 ± 3%
- inhibition at 1 µM (cKit): 6 ± 3%
- inhibition at 1 µM (EGFR): 1 ± 6%
- NOAEL at 14 days (Acute toxicity test; both sexes, rat, in vivo, single oral 3000 mg/kg, 14 days observation, read-out: No Observed Adverse Effect Level (NOAEL)): > 3000 mg/kg
- mortality, clinical signs, and body weight (Acute toxicity test; oral 3000 mg/kg, 14 days): no obvious changes were observed
- inhibition at 1 µM (VEGFR2): 93 ± 3%
- tube formation of HUVEC (HUVEC): strongly inhibited
